Assays:
Assay type in all cases: in vivo
Male SD rats [1] = assay: Rat nicotine self administration, acute treatment; conditions: for inhibition of number of nicotine infusions: vs vehicle
Experimental: Male SD rats were trained to self administer i.v. nicotine (0.03 mg/kg/inj) daily (Monday to Friday) in standard operant chambers with retractable levers (MED Associates, Inc) as previously published (Levin et al., 2003; Levin et al., 2007). During the daily 45 min session, rats received 0.05 ml infusion of 0.03 mg/kg/infusion of nicotine every time the active lever was pressed. A cue light and tone turned on for 0.5 sec together with the activation of a pump that delivered the nicotine solution. Daily sessions were run for at least 10 days before the initiation of drug testing. Solutions of compounds of Example 2 and Example 5 were prepared fresh daily in Formulation 2B: 25% PEG400/5% Vit E TPGS/1% SLS/69% water with 0.5% Methocel) for oral dosing. Compound of Example 2 doses were administered in a counterbalanced design for testing 1 hr before each nicotine session. Every rat received all drug doses and vehicle in a randomly assigned order. The oral drug administrations were made twice per week.
Compound of Example 5 was tested in a study using 4 independent groups. Each group received either oral vehicle or 1 of the 3 doses of compound of Example 5 (5, 10 or 30 mg-eq/kg). […] The 5 mg/kg dose was ineffective.

[2] = system: male Sprague Dawley (SD) rats; assay: Rat cocaine cue reinstatement; conditions: for inhibition of cocaine cue-induced reinstatement (lever presses): 1 hr before session, vs vehicle
Experimental: Training of male Sprague Dawley (SD) rats had 3 separate stages. First, during self administration, animals were trained to lever press for cocaine with presentation of concomitant cues associated with drug delivery. Rats that reached criteria for addiction were included in the study. Afterward, during cue extinction, cocaine-cue dependent behavior was extinguished. Lastly, during cocaine cue reinstatement, the effect of compounds was tested on lever presses upon cue presentation (FIG. 2).
Rats were trained to self administer i.v. cocaine (0.35 mg/kg/injection) daily (Monday to Friday) in standard operant chambers with retractable levers (Coulbourn Instruments, PA). During the daily 2 hr session, rats received a 0.05 ml infusion of 0.35 mg/kg cocaine every time the active lever was pressed. A cue light and tone turned on for 2 sec together with activation of a pump that delivered the cocaine solution. Rats were required to maintain an infusion rate of ≧20+ per day for at least 10 days before being moved to extinction training.
During extinction sessions lever presses no longer produced cocaine infusion and cue light/tone presentation was absent. Rats received a maximum of 15 extinction sessions.
On the next day after reaching extinction criteria, rats were treated orally with vehicle (Formulation 2B: 25% PEG400/5% Vit E TPGS/1% SLS/69% water with 0.5% Methocel) or drug (compound of Example 2 or compound of Example 5) before the cue reinstatement session. Cue reinstatement began with a tone and cue light. This 2 hr session was identical to the self-administration session (cue light and tone present upon active lever press) except that no cocaine was delivered. The number of active lever presses was compared to extinction lever responding. This is considered a measure of reinstatement. The next day, rats were returned to extinction sessions for at least 2 or 3 more sessions. Rats then received a second and last reinstatement session with an opposite treatment to the one received on the first reinstatement session (vehicle or drug treatment). […] The light/tone presentation triggers this response and it is interpreted as a measure of reinstatement even though cocaine is not available.

Male SD rats [3] = assay: Rat nicotine self administration, chronic treatment; conditions: for inhibition of number of nicotine infusions: vs vehicle
Experimental: Upon completion of the acute compound of Example 5 treatment study, the same animals were used to test the effect of 7-day chronic oral administration of compound of Example 5 in the nicotine self administration model. Rats were treated orally with compound of Example 5 (5, 10 or 30 mg-eq/kg) or vehicle 1 hr before nicotine self administration session for 7 consecutive days. […] Similar to the acute treatment, the 5 mg-eq/kg dose was ineffective (FIG. 7). […] Animals in nicotine self administration studies had to reach pre defined criteria (e.g. rat strain, minimum number of nicotine infusions, consistent baseline nicotine self administration throughout the study, patent iv catheters, etc.) to be included in analysis.

| SMILES | effect on number of nicotine infusions, in words (Male SD rats [1]; 1 mg/kg oral) | effect on number of nicotine infusions, in words (Male SD rats [1]; 5 mg/kg oral) | inhibition of cocaine cue-induced reinstatement (lever presses) ([2]; 2.5 mg-eq/kg oral) | effect on cocaine cue reinstatement, in words ([2]; 2.5 mg-eq/kg oral, lowest dose tested) | inhibition of cocaine cue-induced reinstatement (lever presses) ([2]; 5 mg-eq/kg oral) | inhibition of cocaine cue-induced reinstatement (lever presses) ([2]; 10 mg-eq/kg oral) | inhibition of cocaine cue-induced reinstatement (lever presses) ([2]; 30 mg-eq/kg oral) | effect on number of nicotine infusions, in words (Male SD rats [1]; 5 mg-eq/kg oral, independent groups) | inhibition of number of nicotine infusions (Male SD rats [1]; 10 mg-eq/kg oral, independent groups) | inhibition of number of nicotine infusions (Male SD rats [1]; 30 mg-eq/kg oral, independent groups) | development of tolerance to the therapeutic effect (Male SD rats [3]; 7-day chronic oral administration (data not shown)) | effect on number of nicotine infusions, in words (Male SD rats [3]; 7-day chronic oral, 5 mg-eq/kg) | inhibition of number of nicotine infusions (Male SD rats [3]; 7-day chronic oral, 10 mg-eq/kg) | inhibition of number of nicotine infusions (Male SD rats [3]; 7-day chronic oral, 30 mg-eq/kg) |
| --- | --- | --- | --- | --- | --- | --- | --- | --- | --- | --- | --- | --- | --- | --- |
| O=C(NCc1ccc(-c2cc[nH]c(=O)c2)cc1)c1c(Cl)cccc1Cl [Compound 2, 2,6-dichloro-N-[4-(2-oxo-1,2-dihydro-pyridin-4-yl)-benzyl]-benzamide] | without effect | without effect | – | – | – | – | – | – | – | – | – | – | – | – |
| O=C(NCc1ccc(-c2ccn(COP(=O)(O)O)c(=O)c2)cc1)c1c(Cl)cccc1Cl [Compound 14, phosphoric acid mono-(4-{4-[(2,6-dichloro-benzoylamino)-methyl]-phenyl}-2-oxo-2H-pyridin-1-ylmethyl) ester] | – | – | 30% | not significantly different from vehicle | 59% | 55% | 50% | ineffective | 51% | 68% | no development of tolerance | ineffective | 48% | 62% |

From patent US9610299B2, “Compounds for the treatment of addiction” (Gilead Sciences, Inc., priority 2011, dated 2017)
